Source: US10150728B2, “Alkylene derivatives” (Shionogi & Co., Ltd., priority 2013, dated 2018)

What follows are compounds tested against recombinant human ACC2 (Homo sapiens (Human), UniProt O00763) (assay: Measurement of inhibitory activity on human ACC2 (MALDI-TOF MS, acetyl CoA to malonyl CoA conversion)). Conditions: Tables 155-159.
Assay type: biochemical
Method in brief: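 His-tagged human ACC2 (residues 27–2458) from baculovirus-infected Sf-9 cells was preincubated 1 h in pH 7.4 HEPES-KOH buffer with MgCl2, 6-10 mM potassium citrate, glutathione and BSA. Substrate solution held 1 mM ATP, 0.8 mM acetyl CoA and 25-50 mM bicarbonate. After 1–3 h at room temperature, malonyl CoA/(malonyl+acetyl CoA) was read by negative-mode MALDI-TOF MS; citrate, bicarbonate and time varied by enzyme lot.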

Chain of recombinant human ACC2 (O00763 27-2458): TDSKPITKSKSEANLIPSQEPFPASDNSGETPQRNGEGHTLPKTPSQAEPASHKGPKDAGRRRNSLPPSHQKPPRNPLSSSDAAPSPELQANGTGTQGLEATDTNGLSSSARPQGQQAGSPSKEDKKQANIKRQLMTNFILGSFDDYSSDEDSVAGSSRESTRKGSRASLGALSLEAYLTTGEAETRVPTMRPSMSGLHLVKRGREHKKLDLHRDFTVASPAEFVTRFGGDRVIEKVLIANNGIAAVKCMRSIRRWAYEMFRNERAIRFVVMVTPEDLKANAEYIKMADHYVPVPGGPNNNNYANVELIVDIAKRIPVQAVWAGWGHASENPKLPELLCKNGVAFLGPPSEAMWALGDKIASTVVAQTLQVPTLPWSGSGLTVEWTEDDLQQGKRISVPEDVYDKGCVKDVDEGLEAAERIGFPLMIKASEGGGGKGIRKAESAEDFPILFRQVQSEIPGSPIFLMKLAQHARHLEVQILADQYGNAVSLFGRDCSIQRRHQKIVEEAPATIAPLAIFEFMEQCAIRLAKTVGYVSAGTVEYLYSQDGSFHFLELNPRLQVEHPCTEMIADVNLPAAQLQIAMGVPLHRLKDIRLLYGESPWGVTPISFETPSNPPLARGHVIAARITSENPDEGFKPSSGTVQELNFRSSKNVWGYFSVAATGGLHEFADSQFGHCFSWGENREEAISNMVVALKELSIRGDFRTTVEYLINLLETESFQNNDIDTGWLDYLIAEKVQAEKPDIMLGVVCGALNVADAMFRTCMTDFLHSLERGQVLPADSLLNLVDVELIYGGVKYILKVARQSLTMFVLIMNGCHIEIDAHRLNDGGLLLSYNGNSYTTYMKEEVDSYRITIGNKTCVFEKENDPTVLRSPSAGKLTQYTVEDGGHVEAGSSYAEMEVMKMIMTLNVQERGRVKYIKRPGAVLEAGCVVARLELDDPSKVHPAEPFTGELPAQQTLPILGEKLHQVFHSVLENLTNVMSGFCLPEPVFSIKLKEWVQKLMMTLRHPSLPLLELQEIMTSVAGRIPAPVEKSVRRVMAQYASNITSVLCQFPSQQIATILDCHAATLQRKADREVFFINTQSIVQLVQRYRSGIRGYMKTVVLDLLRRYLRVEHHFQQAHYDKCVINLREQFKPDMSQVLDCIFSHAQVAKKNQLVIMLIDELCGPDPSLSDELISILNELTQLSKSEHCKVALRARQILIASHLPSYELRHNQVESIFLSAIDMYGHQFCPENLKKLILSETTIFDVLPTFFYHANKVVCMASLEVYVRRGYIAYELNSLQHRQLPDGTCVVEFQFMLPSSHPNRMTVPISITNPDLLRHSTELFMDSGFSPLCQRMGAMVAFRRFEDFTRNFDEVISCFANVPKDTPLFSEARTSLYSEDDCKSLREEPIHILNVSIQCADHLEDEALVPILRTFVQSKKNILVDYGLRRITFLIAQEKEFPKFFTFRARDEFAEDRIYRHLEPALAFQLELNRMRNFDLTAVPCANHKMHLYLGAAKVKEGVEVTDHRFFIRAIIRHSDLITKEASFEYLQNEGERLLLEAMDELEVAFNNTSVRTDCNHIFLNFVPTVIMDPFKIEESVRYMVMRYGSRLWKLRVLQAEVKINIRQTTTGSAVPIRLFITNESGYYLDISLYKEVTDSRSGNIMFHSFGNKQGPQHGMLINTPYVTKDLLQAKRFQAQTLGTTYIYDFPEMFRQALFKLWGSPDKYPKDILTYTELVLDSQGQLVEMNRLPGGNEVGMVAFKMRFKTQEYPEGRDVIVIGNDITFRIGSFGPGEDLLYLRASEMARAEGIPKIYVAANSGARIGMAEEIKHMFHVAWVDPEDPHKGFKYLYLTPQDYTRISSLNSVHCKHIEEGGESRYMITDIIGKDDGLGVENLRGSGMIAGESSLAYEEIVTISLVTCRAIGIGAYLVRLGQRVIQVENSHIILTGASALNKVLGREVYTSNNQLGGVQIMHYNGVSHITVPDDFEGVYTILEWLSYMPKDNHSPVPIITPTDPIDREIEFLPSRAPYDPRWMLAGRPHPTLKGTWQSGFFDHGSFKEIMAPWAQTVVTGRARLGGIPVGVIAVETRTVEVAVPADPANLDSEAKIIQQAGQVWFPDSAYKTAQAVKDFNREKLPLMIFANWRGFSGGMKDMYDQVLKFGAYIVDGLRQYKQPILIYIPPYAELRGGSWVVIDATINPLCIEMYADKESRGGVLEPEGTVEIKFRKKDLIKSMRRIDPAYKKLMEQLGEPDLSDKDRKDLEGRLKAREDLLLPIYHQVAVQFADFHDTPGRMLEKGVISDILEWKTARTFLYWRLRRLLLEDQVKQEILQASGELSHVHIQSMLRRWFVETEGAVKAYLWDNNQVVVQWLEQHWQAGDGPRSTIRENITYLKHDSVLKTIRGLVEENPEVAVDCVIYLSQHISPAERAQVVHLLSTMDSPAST

IC50 [nM]	SMILES
2	CC(=O)N[C@@H](C)CO[C@H]1CC[C@H](Oc2nc3c(F)cc(OC4CCC4)c(F)c3n2C)CC1 [Compound I-639]
110	C[C@@H](CO[C@H]1CC[C@H](Oc2nc3c(F)cc(OCC(F)F)c(F)c3n2C)CC1)NC(=O)COC(N)=O [Compound I-640]
73	CCOc1cc2c(nc(O[C@H]3CC[C@H](OC[C@H](C)NC(C)=O)CC3)n2C)c(F)n1 [Compound I-641]
7	CC(=O)N[C@@H](C)CC[C@H]1CC[C@H](Oc2nc3c(F)cc(OCC(F)F)c(F)c3n2C)CO1 [Compound I-642]
250	CC(=O)N[C@@H](C)C(F)(F)C[C@@H]1CC[C@@H](Oc2nc3c(F)cc(OCC(F)F)c(F)c3n2C)CO1 [Compound I-643]
26	CC(=O)N[C@@H](C)CC[C@H]1OC[C@H](Oc2nc3cnc(OCC(F)F)c(Cl)c3n2C)C[C@@H]1C [Compound I-644]
15	CCOc1ncc2nc(O[C@H]3CC[C@H](OC[C@H](C)NC(C)=O)CC3)n(C)c2c1Cl [Compound I-646]
6	CC(=O)N[C@@H](C)CO[C@H]1CC[C@H](Oc2nc3cnc(OC(C)C)c(Cl)c3n2C)CC1 [Compound I-647]
110	CC(=O)N[C@@H](C)CO[C@H]1CC[C@H](Oc2nc3c(Cl)cc(C4CC4)cc3n2C)CC1 [Compound I-648]
9	CC(=O)N[C@@H](C)CO[C@H]1CC[C@H](Oc2nc3c(Cl)cc(Oc4ccccc4)cc3n2C)CC1 [Compound I-649]
375	CC(=O)N[C@@H](C)CO[C@H]1CC[C@H](Oc2nc3c(C4CC4)cc(OCC(F)F)cc3n2C)CC1 [Compound I-650]
4	CCOc1cc(Cl)c2nc(O[C@H]3CC[C@H](OC[C@H](C)NC(C)=O)CC3)n(C)c2c1F [Compound I-651]
7	CC(=O)N[C@@H](C)CO[C@H]1CC[C@H](Oc2nc3c(F)cc(OCc4ccccc4)c(F)c3n2C)CC1 [Compound I-652]
65	CC(=O)N[C@@H](C)CO[C@H]1CC[C@H](Oc2nc3c(C#N)cc(OCC(F)F)c(F)c3n2C)CC1 [Compound I-653]
2	CC(=O)N[C@@H](C)CO[C@H]1CC[C@H](Oc2nc3c(F)cc(OC4CC4)c(Cl)c3n2C)CC1 [Compound I-655]
39	C[C@@H](CO[C@H]1CC[C@H](Oc2nc3c(F)cc(OCC(F)F)c(F)c3n2C)CC1)NC(=O)c1cn[nH]c1 [Compound I-656]
14	CC(=O)N[C@@H](C)CC[C@H]1CC[C@H](Oc2nc3cnc(OCC(F)F)c(Cl)c3n2C)CO1 [Compound I-657]
4	CC(=O)N[C@@H](C)CO[C@H]1CC[C@H](Oc2nc3cc(F)c(OCC(F)F)c(F)c3n2C)CC1 [Compound I-658]
23	CC(=O)N[C@@H](C)[C@H](C)O[C@H]1CC[C@H](Oc2nc3c(F)cc(OCC(F)F)c(F)c3n2C)CC1 [Compound I-659]
457	CCOc1ccc2nc(O[C@H]3CC[C@H](OC[C@H](C)NC(C)=O)CC3)n(C)c2c1-c1ccccc1 [Compound I-661]
5	CC(=O)N[C@@H](C)CO[C@H]1CC[C@H](Oc2nc3cnc(OCC4CC4)c(Cl)c3n2C)CC1 [Compound I-662]
700	CC(=O)N[C@@H](C)CO[C@H]1CC[C@H](Oc2nc3c(C#N)cc(C4CC4)cc3n2C)CC1 [Compound I-663]

IC50 [nM]	SMILES
11	CC(=O)N[C@@H](C)CO[C@H]1CC[C@H](Oc2nc3cnc(OC4(C)CC4)c(Cl)c3n2C)CC1 [Compound I-664]
4	CCOc1cc(F)c2nc(O[C@H]3CC[C@H](OC[C@H](C)NC(C)=O)CC3)n(C)c2c1F [Compound I-665]
298	COc1cc(OCc2ccccc2)cc2c1nc(O[C@H]1CC[C@H](OC[C@H](C)NC(C)=O)CC1)n2C [Compound I-666]
8	CC(=O)N[C@@H](C)CO[C@H]1CC[C@H](Oc2nc3cnc(OC4CC4)c(F)c3n2C)CC1 [Compound I-667]
7	C[C@@H](CO[C@H]1CC[C@H](Oc2nc3c(F)cc(OC4CC4)c(F)c3n2C)CC1)NC(=O)CO [Compound I-668]
620	CC(=O)N[C@@H](CO)CO[C@H]1CC[C@H](Oc2nc3cnc(OCC(F)F)c(Cl)c3n2C)CC1 [Compound I-669]
11	C[C@@H](CO[C@H]1CC[C@H](Oc2nc3c(F)cc(OCC(F)F)c(F)c3n2C)CC1)NC(N)=O [Compound I-670]
11	C[C@@H](CO[C@H]1CC[C@H](Oc2nc3c(F)cc(OC4CC4)c(F)c3n2C)CC1)NS(C)(=O)=O [Compound I-671]
30	COC(=O)N[C@@H](C)CO[C@H]1CC[C@H](Oc2nc3c(F)cc(OCC(F)F)c(F)c3n2C)CC1 [Compound I-672]
650	CC(=O)N[C@@H](C)CO[C@H]1CC[C@H](Oc2nc3c(C(N)=O)cc(OC4CC4)c(F)c3n2C)CC1 [Compound I-673]
7	C[C@@H](CC[C@@H]1CC[C@@H](Oc2nc3c(F)cc(OCC(F)F)c(Cl)c3n2C)CO1)NC(N)=O [Compound I-674]
18	CC(=O)N[C@@H](C)[C@H](C)O[C@H]1CC[C@H](Oc2nc3cnc(OCC(F)F)c(Cl)c3n2C)CC1 [Compound I-675]
13	CC(=O)N[C@@H](C)CO[C@H]1CC[C@H](Oc2nc3ccc(OCC(F)F)c(F)c3n2C)CC1 [Compound I-677]
123	CC(=O)N[C@@H](C)CO[C@H]1CC[C@H](Oc2nc3c(Cl)cc(Br)cc3n2C)CC1 [Compound I-678]
625	CC(=O)N[C@@H](C)CO[C@H]1CC[C@H](Oc2nc3c(C#N)cc(OCC(F)F)cc3n2C)CC1 [Compound I-679]
140	CC(=O)N[C@@H](C)CO[C@H]1CC[C@H](Oc2nc3c(Br)cc(OCC(F)F)cc3n2C)CC1 [Compound I-680]
5	C[C@@H](CC[C@H]1CC[C@H](Oc2nc3cnc(OC4CC4)c(Cl)c3n2C)CC1)NC(N)=O [Compound I-682]
3	C[C@@H](CO[C@H]1CC[C@H](Oc2nc3c(F)cc(OC4CC4)c(F)c3n2C)CC1)NC(=O)C(F)F [Compound I-683]
6	CC(=O)N[C@@H](C)CC[C@@H]1CC[C@@H](Oc2nc3cnc(OCC(F)F)c(Cl)c3n2C)CO1 [Compound I-684]
170	CCOc1c(F)cc2c(nc(O[C@H]3CC[C@H](OC[C@H](C)NC(C)=O)CC3)n2C)c1F [Compound I-685]
5	CCOc1nc(F)c2nc(O[C@H]3CC[C@H](OC[C@H](C)NC(C)=O)CC3)n(C)c2c1Cl [Compound I-686]
14	C[C@@H](CO[C@H]1CC[C@H](Oc2nc3c(F)cc(OCC(F)F)c(Cl)c3n2C)CC1)NC(N)=O [Compound I-687]

IC50 [nM]	SMILES
4	CC(=O)N[C@@H](C)CC[C@@H]1CC[C@@H](Oc2nc3c(F)cc(OCC(F)F)c(Cl)c3n2C)CO1 [Compound I-688]
25	CC(=O)N[C@@H](C)[C@H](C)O[C@H]1CC[C@H](Oc2nc3cnc(OC4CC4)c(F)c3n2C)CC1 [Compound I-689]
25	CC(=O)N[C@@H](C)CO[C@H]1CC[C@H](Oc2nc3ccc(Br)c(F)c3n2C)CC1 [Compound I-691]
34	CCOc1cc(Cl)c2nc(O[C@H]3CC[C@H](OC[C@H](C)NC(C)=O)CC3)n(C)c2c1 [Compound I-692]
8	CC(=O)N[C@@H](C)CO[C@H]1CC[C@H](Oc2nc3cnc(OC4CC(F)(F)C4)c(Cl)c3n2C)CC1 [Compound I-693]
13	CCOc1ncc2nc(O[C@H]3CC[C@H](OC[C@H](C)NC(C)=O)CC3)n(C)c2c1F [Compound I-694]
96	CC(=O)N[C@@H](C)CO[C@H]1CC[C@H](Oc2nc3cnc(C4CC4)c(Cl)c3n2C)CC1 [Compound I-695]
497	COC(=O)NC(=O)N[C@@H](C)CO[C@H]1CC[C@H](Oc2nc3cnc(OC4CC4)c(Cl)c3n2C)CC1 [Compound I-696]
4	C[C@@H](CO[C@H]1CC[C@H](Oc2nc3c(F)cc(OC4CC4)c(F)c3n2C)CC1)NC(N)=O [Compound I-697]
3	CCOc1c(F)cc2nc(O[C@H]3CC[C@H](OC[C@H](C)NC(C)=O)CC3)n(C)c2c1F [Compound I-698]
9	CC(=O)N[C@@H](CF)CO[C@H]1CC[C@H](Oc2nc3c(F)cc(OCC(F)F)c(F)c3n2C)CC1 [Compound I-700]
23	CNC(=O)N[C@@H](C)CO[C@H]1CC[C@H](Oc2nc3c(F)cc(OCC(F)F)c(F)c3n2C)CC1 [Compound I-701]
15	CC(=O)N[C@@H](C)CO[C@H]1OC[C@@H](Oc2nc3c(F)cc(OCC(F)F)c(F)c3n2C)C[C@@H]1C [Compound I-702]
30	CC(=O)N[C@@H](C)CO[C@H]1CC[C@H](Oc2nc3c(C#N)c(F)c(OCC(F)F)c(F)c3n2C)CO1 [Compound I-703]
9	CC(=O)N[C@@H](C)CO[C@H]1CC[C@H](Oc2nc3cnc(OC4CC4)c(Cl)c3n2C)CC1 [Compound I-705]
48	CC(=O)N[C@@H](C)CO[C@H]1CC[C@H](Oc2nc3c(Cl)cc(OCC(F)F)cc3n2C)CC1 [Compound I-706]
84	CC(=O)N[C@@H](C)CO[C@H]1CC[C@H](Oc2nc3c(F)cc(OCC(F)F)cc3n2C)CC1 [Compound I-707]
5	CC(=O)N[C@@H](C)CO[C@H]1CC[C@H](Oc2nc3cnc(OCC4CC4(F)F)c(Cl)c3n2C)CC1 (stereo partly drawn) [Compound I-708]
133	CC(=O)N[C@@H](C)CO[C@H]1CC[C@H](Oc2nc3c(C)cc(OCC(F)F)cc3n2C)CC1 [Compound I-709]
6	CC(=O)N[C@@H](C)CO[C@H]1CC[C@H](Oc2nc3c(Cl)nc(OC4CC4)c(Cl)c3n2C)CC1 [Compound I-710]
7	CC(=O)N[C@@H](C)CO[C@H]1CC[C@H](Oc2nc3c(Cl)nc(OC4CC4)c(F)c3n2C)CC1 [Compound I-711]
3	CC(=O)N[C@@H](C)CO[C@H]1CC[C@H](Oc2nc3c(F)cc(OC4CC(F)(F)C4)c(F)c3n2C)CC1 [Compound I-713]
